From patent US8476302B2, “α-ketoamide derivatives useful endothelial lipase inhibitors” (Janssen Pharmaceutica N.V., priority 2010, dated 2013)
Several values for one entry are separate records, joined by “and”; a condition that tells them apart may be missing. Identical values can stand only once.

Key:
[1] = target: T1, human endothelial lipase (EL) (Homo sapiens, UniProt Q9Y5X9); experiment: Endothelial Lipase Assay, cell surface lipase activity (human); format: cell-based; conditions: cells expressing human EL, PLA1 substrate 10 μM, fluorescence reaction rate; several values in a cell are repeat determinations
T1 construct: host or cells: cells expressing human endothelial lipase
T1 sequence (Q9Y5X9 21-500): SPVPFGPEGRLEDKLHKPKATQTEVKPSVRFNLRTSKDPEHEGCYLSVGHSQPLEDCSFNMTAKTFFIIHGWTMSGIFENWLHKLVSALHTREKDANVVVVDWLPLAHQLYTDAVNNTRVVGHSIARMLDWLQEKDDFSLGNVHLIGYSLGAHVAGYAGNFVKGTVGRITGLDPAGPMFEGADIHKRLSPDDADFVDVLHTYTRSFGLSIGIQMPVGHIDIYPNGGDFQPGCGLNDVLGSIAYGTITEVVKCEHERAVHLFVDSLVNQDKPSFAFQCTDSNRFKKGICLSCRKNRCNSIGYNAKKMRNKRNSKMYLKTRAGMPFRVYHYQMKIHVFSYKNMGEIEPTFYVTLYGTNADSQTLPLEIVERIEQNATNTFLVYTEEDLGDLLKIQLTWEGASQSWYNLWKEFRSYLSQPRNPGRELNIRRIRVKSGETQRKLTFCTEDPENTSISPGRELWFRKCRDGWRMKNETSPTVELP
Description: (§1) Endothelial Lipase Assay (Human/Mouse)
(§2) To assay for cell surface lipase activity, cells expressing human endothelial lipase (EL) or LPL were plated in CellBIND® 384-well plates (Corning, Lowell, Mass.) in 25 μL serum free medium at a density of 2000 cells/well. After 18-24 hours incubation at 37° C., the medium was removed and replaced with 15 μL assay buffer [Hank's Buffered Saline Solution with 25 mM HEPES pH 7.2] and 15 μL PLA1 for a final concentration of 10 μM using a Multidrop reagent dispenser. Fluorescence signal was monitored for 30 min at 37° C. on a Safire II plate reader in kinetic mode (60 cycles, kinetic interval: 30 seconds) with an excitation wavelength of 490 nm and an emission wavelength of 515 nm. Linear regression of the fluorescence intensity collected from 480 to 1500 seconds was used to calculate the reaction rate (the slope) and the slopes were used to calculate IC50 values where appropriate. The amount of BODIPY-labeled product generated was calculated at the 30 min time point as determined from standard curve analysis of purified BODIPY FL C5. In all studies using the inhibitor Ebelactone B, consistent results were obtained when it was dissolved as a stock in DMSO, immediately before use.

Mouse EL = target: T2, Mouse EL (Mus musculus, UniProt Q9WVG5); experiment: Endothelial Lipase Assay, cell surface lipase activity (mouse); format: cell-based; conditions: PLA1 substrate 10 μM, fluorescence reaction rate, several values in a cell are repeat determinations
T2 construct: host or cells: not described for mouse EL
T2 sequence (Q9WVG5 21-500): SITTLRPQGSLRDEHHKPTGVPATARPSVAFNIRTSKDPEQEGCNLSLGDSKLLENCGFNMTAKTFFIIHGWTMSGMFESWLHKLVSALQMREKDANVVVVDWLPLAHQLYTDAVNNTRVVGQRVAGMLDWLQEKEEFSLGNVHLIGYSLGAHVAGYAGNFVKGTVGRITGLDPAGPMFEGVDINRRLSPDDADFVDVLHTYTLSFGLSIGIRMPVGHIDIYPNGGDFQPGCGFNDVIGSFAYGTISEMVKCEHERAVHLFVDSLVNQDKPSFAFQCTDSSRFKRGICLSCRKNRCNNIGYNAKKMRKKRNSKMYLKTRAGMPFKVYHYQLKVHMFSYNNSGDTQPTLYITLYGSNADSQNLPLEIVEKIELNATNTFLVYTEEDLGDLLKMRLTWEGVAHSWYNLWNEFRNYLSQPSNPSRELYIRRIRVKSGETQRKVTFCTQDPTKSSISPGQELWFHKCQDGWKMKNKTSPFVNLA
Description: as §1, §2

Structure (SMILES) | IC50 [1] | IC50 (Mouse EL)
O=C(CCCCCCc1ccccc1)C(=O)NCc1nnc(-c2cccc(Oc3ccccc3)c2)o1 [Compound 58] | 4890 nM | 1720 nM
O=C(CCCCCCc1ccccc1)C(=O)NCc1nnc(-c2ccc(Oc3ccc(Cl)cc3)cc2)o1 [Compound 59] | 2590 nM | 1110 nM
O=C(CCCCCOc1ccccc1)C(=O)NCc1nnc(-c2cccc(Oc3ccccc3)c2)o1 [Compound 60] | 7120 nM | 9800 nM
O=C(CCCCCOc1cccc(F)c1)C(=O)NCc1nnc(-c2ccc3c(c2)Oc2ccccc2O3)o1 [Compound 62] | 5200 nM | 2720 nM
COc1cccc(OCCCCCC(=O)C(=O)NCc2nnc(-c3ccccc3)o2)c1 [Compound 63] | 5450 nM | 6120 nM
COc1cccc(OCCCCCC(=O)C(=O)NCc2nnc(-c3cccc(Oc4ccccc4)c3)o2)c1 [Compound 64] | 10900 nM | 9980 nM
COc1cccc(OCCCCCC(=O)C(=O)NCc2nnc(-c3ccc(Oc4ccccc4)cc3)o2)c1 [Compound 65] | 872 nM | 793 nM
O=C(CCCCCOc1cccc(F)c1)C(=O)NCc1nnc(-c2ccc(Oc3cccc(Cl)c3)cc2)o1 [Compound 67] | 640 nM | 648 nM
CN(c1ccc(Br)cc1)c1ccc(-c2nnc(CNC(=O)C(=O)CCCCCCc3ccccc3)o2)cc1 [Compound 75] | 11600 nM | 11200 nM
O=C(CCCCCCc1ccccc1)C(=O)NCc1nnc(-c2ccc(OCc3cccc(Cl)c3)cc2)o1 [Compound 76] | 3070 nM | 1950 nM
O=C(CCCCCCc1ccccc1)C(=O)NCc1nnc(-c2ccc(OCc3ccc(Cl)cc3)cc2)o1 [Compound 77] | 33300 nM | 33300 nM
Cn1ccnc1COc1ccc(-c2nnc(CNC(=O)C(=O)CCCCCCc3ccccc3)o2)cc1 [Compound 78] | 944 nM | 775 nM
O=C(CCCCCCc1ccccc1)C(=O)NCc1nnc(-c2ccc(OCc3ccc(F)cc3)cc2)o1 [Compound 80] | 600 nM | 214 nM
COc1ccc(COc2ccc(-c3nnc(CNC(=O)C(=O)CCCCCCc4ccccc4)o3)cc2)cc1 [Compound 81] | 11500 nM | 8340 nM
O=C(CCCCCCc1ccccc1)C(=O)NCc1nnc(-c2ccc(Oc3ncccn3)cc2)o1 [Compound 87] | 1450 nM | 708 nM
O=C(CCCCCCc1ccccc1)C(=O)NCc1nnc(-c2ccc(OCc3ccc4ccccc4n3)cc2)o1 [Compound 89] | 565 nM | 232 nM
O=C(CCCCCCc1ccccc1)C(=O)NCc1nnc(-c2ccc(OCc3cc(F)cc(F)c3)cc2)o1 [Compound 90] | 548 nM and 188 nM | 80 nM and 159 nM
O=C(CCCCCOc1c(F)cccc1F)C(=O)NCc1nnc(-c2ccc(Oc3ccccc3)cc2)o1 [Compound 93] | 3060 nM | 1480 nM
O=C(CCCCCOc1cc(F)ccc1F)C(=O)NCc1nnc(-c2ccc(OCc3ccccc3)cc2)o1 [Compound 94] | 936 nM | 634 nM
O=C(CCCCCOc1cc(F)cc(F)c1)C(=O)NCc1nnc(-c2ccc(Oc3ccccc3)cc2)o1 [Compound 95] | 1060 nM | 560 nM
O=C(CCCCCOc1cccc(Cl)c1)C(=O)NCc1nnc(-c2ccc(OCc3ccccc3)cc2)o1 [Compound 96] | 1300 nM | 666 nM
O=C(CCCCCOc1cc(F)ccc1F)C(=O)NCc1nnc(-c2ccc(Oc3ccccc3)cc2)o1 [Compound 98] | 1730 nM | 774 nM
O=C(CCCCCOc1ccc(F)cc1F)C(=O)NCc1nnc(-c2ccc(OCc3ccccc3)cc2)o1 [Compound 99] | 2150 nM | 1050 nM
O=C(CCCCCOc1cc(F)cc(F)c1)C(=O)NCc1nnc(-c2ccc(OCc3ccccc3)cc2)o1 [Compound 100] | 1330 nM | 551 nM
O=C(CCCCCOc1c(F)cccc1F)C(=O)NCc1nnc(-c2ccc(OCc3ccccc3)cc2)o1 [Compound 101] | 5480 nM | 19900 nM
O=C(CCCCCOc1cccc(F)c1F)C(=O)NCc1nnc(-c2ccc(Oc3ccccc3)cc2)o1 [Compound 102] | 1970 nM | 809 nM
O=C(CCCCCCc1ccccc1)C(=O)NCc1nnc(-c2ccc(Oc3ccc(F)cc3)cc2)o1 [Compound 106] | 746 nM | 298 nM
O=C(CCCCCOc1cc(F)cc(F)c1)C(=O)NCc1nnc(-c2ccccc2)s1 [Compound 108] | 626 nM | 1170 nM
CN(Cc1ccc(F)c(F)c1)c1ccc(-c2nnc(CNC(=O)C(=O)CCCCCCc3ccccc3)o2)cc1 [Compound 110] | 677 nM | 346 nM
O=C(CCCCCCc1ccccc1)C(=O)NCc1nnc(-c2ccc(NCc3ccc(F)c(F)c3)cc2)o1 [Compound 118] | 675 nM | 476 nM

Further compounds by falling IC50 [1], results first:

IC50 [1] | IC50 (Mouse EL) | Structure (SMILES)
515 nM | 254 nM | CC(C)(C)OC(=O)N(Cc1ccccc1)c1ccc(-c2nnc(CNC(=O)C(=O)CCCCCCc3ccccc3)o2)cc1 [Compound 115]
505 nM | 317 nM | CN(Cc1ccccc1)c1ccc(-c2nnc(CNC(=O)C(=O)CCCCCCc3ccccc3)o2)cc1 [Compound 109]
432 nM | 911 nM | O=C(CCCCCOc1ccc(F)cc1F)C(=O)NCc1nnc(-c2ccc(Oc3ccccc3)cc2)o1 [Compound 92]
345 nM | 216 nM | O=C(CCCCCCc1ccccc1)C(=O)NCc1nnc(-c2ccc(OCc3ccncn3)cc2)o1 [Compound 107]
325 nM | 289 nM | O=C(CCCCCCc1ccccc1)C(=O)NCc1nnc(-c2ccc(NCc3ccccc3)cc2)o1 [Compound 116]
272 nM | 835 nM | O=C(CCCCCOc1cccc(F)c1)C(=O)NCc1nnc(-c2ccc(OCc3ccccc3)cc2)o1 [Compound 69, N-((5-(4-(benzyloxy)phenyl)-1,3,4-oxadiazol-2-yl)methyl)-7-(3-fluorophenoxy)-2-oxoheptanamide]
255 nM | 366 nM | O=C(CCCCCCc1ccccc1)C(=O)NCc1nnc(-c2ccc(Oc3cccc(Cl)c3)cc2)o1 [Compound 66]
236 nM | 156 nM | CN(Cc1ccccn1)c1ccc(-c2nnc(CNC(=O)C(=O)CCCCCCc3ccccc3)o2)cc1 [Compound 111]
235 nM | 200 nM | O=C(CCCCCCc1ccccc1)C(=O)NCc1nnc(-c2ccc(OCc3cccc(F)c3)cc2)o1 [Compound 84]
230 nM | 181 nM | O=C(CCCCCCc1ccccc1)C(=O)NCc1nnc(-c2ccc(OCn3nnc4ccccc43)cc2)o1 [Compound 104]
223 nM | 169 nM | O=C(CCCCCCc1ccccc1)C(=O)NCc1nnc(-c2ccc(OCc3ccccc3F)cc2)o1 [Compound 85]
219 nM | 436 nM | O=C(CCCCCCc1ccccc1)C(=O)NCc1nnc(-c2ccccc2)s1 [Compound 74]
178 nM | 196 nM | O=C(CCCCCCc1ccccc1)C(=O)NCc1nnc(-c2ccc(OCc3ccccn3)cc2)o1 [Compound 88]
156 nM | 72 nM | O=C(CCCCCCc1ccccc1)C(=O)NCc1nnc(-c2ccc(OCc3ccncc3)cc2)o1 [Compound 86]
142 nM | 124 nM | O=C(CCCCCCc1ccccc1)C(=O)NCc1nnc(-c2ccc(OCc3ccccc3)cc2)o1 [Compound 68]
121 nM | 64 nM | COC(=O)c1cccc(COc2ccc(-c3nnc(CNC(=O)C(=O)CCCCCCc4ccccc4)o3)cc2)c1 [Compound 83]
108 nM | 133 nM | O=C(CCCCCCc1ccccc1)C(=O)NCc1nnc(-c2ccc(OCc3cccnc3)cc2)o1 [Compound 82]
78 nM | 50 nM | N#Cc1cccc(COc2ccc(-c3nnc(CNC(=O)C(=O)CCCCCCc4ccccc4)o3)cc2)c1 [Compound 117]
